In the METLIN SMRT retention time set (Domingo-Almenara et al. 2019):

Assay: gradient 5% acetonitrile 3 min, to 50% in 2 min, to 85% in 15 min, held 3 min, 100 µL/min
Details: column: Zorbax Extend-C18 2.1 x 50 mm; eluents: water / acetonitrile, 0.1% formic acid
Procedure, shortened: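 Using water and acetonitrile that each contained 0.1% formic acid, mixtures of ~100 pure standards were separated at 100 μL/min on a Zorbax Extend-C18 column (2.1 × 50 mm, 1.8 μm). The HPLC fed a quadrupole time-of-flight mass spectrometer working in positive and negative ionization mode, with dead and dwell volumes of 40 μL and 900 μL. Data were acquired over 3 months. Retention time was read from computationally picked adduct peaks after manual inspection of each.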

Row | Structure (SMILES) | RP-LC retention time [s]
1 | CNC(=O)Oc1ccc2c(c1)[C@]1(C)CCN(C)C1N2C (stereo partly drawn) | 594
2 | CCc1nnc2nc(N3CCN(C(=O)c4ccc(N(C)C)cc4)CC3)cc(C)n12 | 609
3 | COCc1c(C(=O)O)nnn1Cc1ccc(OC)c(F)c1 | 658
4 | CC(NC(=O)C1CCCN(c2nccnc2Oc2ccccc2)C1)c1ccccc1 (stereo not drawn) | 986
5 | COc1ccc2c(c1)C=C(C(=O)Nc1ccc(OC)cc1OC)C=CO2 | 699
6 | Cc1ccc(S(=O)(=O)N2CCCC2c2nc(-c3cccc(F)c3)no2)cc1Cl (stereo not drawn) | 1230
7 | Cc1noc(C)c1-c1ccc(S(=O)(=O)NC2CCCC2)cc1 | 911
8 | O=c1c2cc(-c3ccccc3)nn2ccn1Cc1noc(CN2CCc3ccccc3C2)n1 | 818
9 | COC(=O)c1c(NCCc2c[nH]c3ccccc23)c2ccccc2[nH]c1=O | 744
10 | Cn1c(=O)n(CC(=O)O)c(=O)c2c1nc1n2CCN1c1ccc(F)cc1 | 704
11 | CCCN(Cc1ccc(OC)c(OC)c1)Cc1cc(=O)n2cc(Cl)ccc2n1 | 632
12 | Cc1ccc(=O)n(CCNC(=O)C2CC(=O)N(c3ccc(C)c(C)c3)C2)n1 (stereo not drawn) | 615
13 | CCOc1ccccc1NC(=O)Cn1nc2c(N3CCSCC3)nccn2c1=O | 853
14 | O=C(Cn1ccn2nc(-c3ccc(F)cc3)c(CO)c2c1=O)Nc1ccc(F)c(F)c1 | 865
15 | O=C(c1cccc(Cl)c1)N1CCN(c2cc(-c3ccc(Cl)cc3)[nH]n2)CC1 | 917
16 | CS(=O)(=O)N1CCC(CNC(=O)NC(c2ccccc2)c2ccccc2)CC1 | 732
17 | COc1ccc(C2(C(=O)NCCC3CCN(C(=O)Nc4ccccc4F)CC3)CC2)cc1 | 837
18 | Cc1nc2c(c(=O)n1CC(=O)NCCC1=CCCCC1)CCN(Cc1ccccc1)C2 | 666
19 | CC1(C(=O)NCc2ccc(F)cc2)CCN(C(=O)Nc2ccccc2C(F)(F)F)CC1 | 877
20 | CSc1nnc(-c2nn(C)c3c2CN(C(=O)c2ccc(C)c(C)c2)CC3)n1C | 770
21 | O=C1COc2ccc(S(=O)(=O)N3CCCC3C(=O)Nc3ccc(F)c(Cl)c3)cc2N1 (stereo not drawn) | 845
22 | COC(=O)C(NC(=O)N1CCCn2nc(-c3cccnc3)cc2C1)c1ccccc1 (stereo not drawn) | 616

Row | Structure (SMILES) | RP-LC retention time [s]
23 | O=C(CCc1ccccc1)N1CCCC1c1nc(-c2ccccc2Cl)no1 (stereo not drawn) | 1040
24 | COc1ccc(-c2c(C(=O)Nc3ccc4c(c3)OCCO4)nc3ccccn23)cc1 | 919
25 | CCOC(=O)c1[nH]c(C)c(CCC(=O)N2CCCC(C(=O)NC3CCCCCC3)C2)c1C (stereo not drawn) | 868
26 | CCCCNC(=O)Cn1c(=O)c2cccn2c2ccc(F)cc21 | 773
27 | Cc1cc(=O)n(CC(=O)Nc2ccc(F)cc2C)c(N)n1 | 586
28 | N#Cc1cccc(NC(=O)CSc2nc(N3CCc4ccccc4C3)nc3ccccc23)c1 | 862
29 | CC(C)c1ccc(CN2CC(c3nc(CCN(C)S(C)(=O)=O)no3)C2)cc1 | 664
30 | CCOc1ccccc1CNC(=O)C1CCN(c2nccnc2Sc2cccc(C)c2)CC1 | 1170
31 | CC(C)n1c(-c2cccc(C(=O)NCCN3CCCCC3)c2)nc2cccnc21 | 599
32 | Cc1cccc(C)c1Nc1c(-c2ccccc2F)nc2cccc(C)n12 | 757
33 | O=C(Cn1ncc2c(N3CCN(c4ccccn4)CC3)ncnc21)Nc1ccc(Cl)cc1 | 643
34 | Cc1ccccc1NC(=O)Cn1nc(N2CCSCC2)c2ccccc2c1=O | 892
35 | O=C(NCc1ccccn1)c1cccn1Cc1noc(-c2ccc(Cl)cc2)n1 | 743
36 | Cc1nc2ccn(Cc3ccco3)c(=O)c2cc1C(=O)NC1CCCCC1 | 751
37 | O=C1NCCCn2cc(S(=O)(=O)N3CCN(c4ccc(Cl)cc4)CC3)cc21 | 804
38 | O=C(NCc1cccnc1)c1cccn1-c1nnc(N2CCOCC2)s1 | 560
39 | CC1CCN(CCNC(=O)c2nnc(-c3ccc(S(=O)(=O)N4CCOCC4)cc3)o2)CC1 | 629
40 | CCC(=O)Nc1ccc(S(=O)(=O)NC2CCN(c3ccc(=O)n(CC4CC4)n3)C2)cc1 (stereo not drawn) | 712
41 | CCN1CCN(C(=O)c2cc3n(n2)CC(C)(C(=O)NC2CCCCC2)N(C)C3=O)CC1 (stereo not drawn) | 584
42 | Brc1ccc(Nc2nc(-c3ccccc3)cs2)nc1 | 1210
43 | Cc1ccc(C(=O)Nc2nc(-c3ccc(C(C)(C)C)cc3)cs2)cc1 | 1370
44 | COC(=O)c1ncn2c1C(=O)N(Cc1ccc(F)cc1)C(C)(C(=O)NCc1ccccc1)C2 (stereo not drawn) | 714

Row | Structure (SMILES) | RP-LC retention time [s]
45 | COc1ccc2[nH]c(=O)c(CCC(=O)NCC(C)C)cc2c1 | 660
46 | CCc1cc(=O)n(CC(=O)Nc2ccc(C)cc2)c(N2CCOCC2)n1 | 612
47 | Cc1noc(C2CN(C(=O)c3cnn(C)c3)CC23CCCC3)n1 (stereo not drawn) | 684
48 | CCc1nc2cc(-c3noc(-c4n[nH]c5ccccc45)n3)ccc2o1 | 645
49 | CC(C)Sc1ccc(CC(=O)NCC2(O)CCCC2)cc1 | 752
50 | CCc1nnc(-c2ccc3ccn(CC(=O)NCCc4cccs4)c3c2)o1 | 781
51 | Cc1cccc(N(C)C(=O)Cn2nc3nc(N4CCCC(C)C4)ccn3c2=O)c1 (stereo not drawn) | 808
52 | Cn1c(SCc2ccc([N+](=O)[O-])cc2)nnc1-c1cccnc1 | 627
53 | CN(C)C(=O)c1ccc(N2CCc3ccccc32)s1 | 907
54 | O=C(CC1CCCN(c2cn[nH]c(=O)c2)C1)Nc1ccc2c(c1)OCCO2 (stereo not drawn) | 639
55 | CCS(=O)(=O)N1CC(=O)N(c2ccc(C(C)C)cc2)C(C)(C(=O)NCc2ccc(F)cc2)C1 (stereo not drawn) | 872
56 | COc1ccc(CN2C=C(C(=O)OCc3nc(-c4ccccc4)no3)C(C)=NS2(=O)=O)cc1 | 1100
57 | COc1cc(-c2ccc(NC(=O)NC3CC3)c(OC)c2)ccc1NC(=O)NC1CC1 | 824
58 | Cc1nnc(SCC(=O)NCc2ccccc2)c2nn(-c3ccccc3)c(C)c12 | 643
59 | CCOc1ccc(-c2cc3c(=O)n(Cc4nc(-c5cccc(C(F)(F)F)c5)no4)ncn3n2)cc1 | 1250
60 | CN(C)C[C@@H]1CN(C2CCOCC2)C[C@H]1NC(=O)C1(c2ccccc2)CC1 | 556
61 | CCOc1ccc(-c2[nH]nc3nc(-c4cccc(F)c4)cc(C(=O)O)c23)cc1 | 843
62 | CCc1nc(-c2csc(S(=O)(=O)N3CCCC(C(=O)Nc4ccccc4CC)C3)c2)no1 (stereo not drawn) | 1060
63 | O=C(c1ccc(Cl)s1)N1CCN(c2ncnc3c2CCC3)CC1 | 638
64 | O=C(Cn1nc2ccc(SCc3ccc(Cl)cc3)nn2c1=O)NC1CCCCC1 | 870
65 | COc1nn(C)cc1C(=O)Nc1nnc(C2CC(=O)N(c3ccccc3)C2)o1 (stereo not drawn) | 610
66 | COc1ccc(C(=O)N2C[C@@H]3C[C@H](NS(=O)(=O)c4ccccc4)[C@H]2C3)cn1 | 695

Row | Structure (SMILES) | RP-LC retention time [s]
67 | COc1ccc2c(c1)C1(CCN(C(=O)c3ccc(C)cc3)C1)C(=O)N2C (stereo not drawn) | 785
68 | Cc1ccc(C2C(S(=O)(=O)c3ccc(C)cc3)=C(O)C(=O)N2Cc2ccco2)cc1 (stereo not drawn) | 976
69 | COC1C(=O)N(CC2CC2)C12CCN(C(=O)C(C)C)CC2 (stereo not drawn) | 686
70 | O=c1n(Cc2cccc(F)c2)nc2ccc(S(=O)(=O)N3CCc4ccccc4C3)cn12 | 987
71 | CCc1nnc2nc(N3CCN(C(=O)c4ccc(Cl)s4)CC3)cc(C)n12 | 638
72 | Cc1ccn2cc(C(=O)NCc3ccccc3C)nc2c1 | 708
73 | COc1ccccc1NS(=O)(=O)c1cc2n(c1)CCN(C(C)C)C2=O | 733
74 | Cc1cc2nnc(SCC(=O)c3ccc4c(c3)OCO4)n2c2ccccc12 | 793
75 | COc1ccccc1-c1noc(C2CCCN2C(=O)Nc2cccc(Br)c2)n1 (stereo not drawn) | 944
76 | N#Cc1cccc(Cn2cc(S(=O)(=O)N3CCCC3)ccc2=O)c1 | 764
77 | CC(C)c1nc(NCc2ccc(F)cc2F)ncc1C(=O)O | 875
78 | CCc1nn2c(CNS(=O)(=O)c3ccc(C)c(C)c3)c(-c3ccccc3)nc2s1 | 984
79 | COc1ccccc1N1CCN(c2nc3c(c(Nc4ccccc4)n2)C(=O)CCC3)CC1 | 1270
80 | COc1ccc(-c2cc3c4nn(CC(=O)N5CCCc6ccccc65)c(=O)n4ccn3n2)cc1 | 937
81 | CC1CN(C(=O)c2cccc3c2-c2ccccc2C3=O)CC(C)O1 (stereo not drawn) | 754
82 | COc1ccc(-c2ccc3nc(N4CCC(C(=O)O)CC4)sc3n2)cc1 | 825
83 | CCOc1ccc(CNC(=O)c2c(C)oc3c2C2=NCCN2C=N3)cc1 | 668
84 | CCCc1noc(-c2cccnc2N2CCCN(Cc3ccc(C)cc3)CC2)n1 | 749
85 | O=C(NC1CC1)C1CCN(c2ncccc2-c2nc(-c3ccc(Cl)cc3)no2)CC1 | 970
86 | CNC(=O)c1ccc(-c2nc3cc(NS(=O)(=O)c4ccc(Cl)s4)ccc3n2C)cc1 | 660
87 | Cc1cc(=O)n(CC(=O)NCc2ccccc2)c(N2CCCC2)n1 | 606
88 | CCOc1ccc2nc(Nc3ncc4c(n3)CC(c3ccccc3)CC4=O)nc(C)c2c1 (stereo not drawn) | 831
